Laboratory results as given in patent US9630969B2, “N-alkyl tryptanthrin derivative, preparation method for same, and application thereof” (SHANGHAI TIN TSZ BIO VALLEY BIOLOGICAL ENGINEERING CO., LTD, priority 2013, dated 2017).
Read-outs that look alike come from different tables or passages of the source.

What was measured:
[1] = molecular target: T1, human IDO (Homo sapiens, UniProt P14902); test: Determination of whether the inhibitor is reversible (v~[E] plot); type: biochemical; conditions: constant inhibitor concentration, different IDO enzyme amounts, 300 mM L-tryptophan, 37° C. 30 minutes
T1 construct: made in house; host or cells: Escherichia coli
T1 sequence (P14902 whole entry): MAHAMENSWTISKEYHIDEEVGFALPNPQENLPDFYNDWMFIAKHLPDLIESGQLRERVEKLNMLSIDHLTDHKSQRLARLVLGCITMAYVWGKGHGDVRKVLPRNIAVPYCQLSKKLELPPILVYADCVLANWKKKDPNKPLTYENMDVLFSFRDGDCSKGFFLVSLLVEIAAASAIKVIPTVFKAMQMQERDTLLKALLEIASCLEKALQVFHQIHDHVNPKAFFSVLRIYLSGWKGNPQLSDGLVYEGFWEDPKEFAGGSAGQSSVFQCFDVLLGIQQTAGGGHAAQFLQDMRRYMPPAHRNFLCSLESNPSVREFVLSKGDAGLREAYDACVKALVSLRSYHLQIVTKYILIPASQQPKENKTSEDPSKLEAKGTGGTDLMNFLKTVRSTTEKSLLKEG
Method: In case that the inhibitor concentration was constant, a series of enzymes of different concentrations are reacted with the inhibitor and the reaction rate was measured. The reaction rate to the enzyme concentration (v˜[E]) was plotted, thus it can be determined that whether it is a reversible inhibitor according to the curve characteristics.
The mixture was incubated under 37° C. for 5 min, then different volumes of IDO enzymes were added. The reaction was conducted at 37° C. for 30 minutes and was terminated by adding 30% (w/v) trichloroacetic acid (200 μl). The reaction system was heated at 65° C. for 15 minutes to convert the formyl kynurenine to kynurenine, and then rotated under 12000 rpm for 10 minutes. The supernatant was taken to mix with isometric solution of p-dimethyl amidogen benzaldehyde in acetic acid (2% (w/v)). The off scale reading at 490 nm was observed using a Microplate Reader. The v˜[E] was plotted.

[2] = molecular target: T1, human IDO; test: biochemical
Method: The reaction was conducted under 37° C. for 30 minutes and was terminated by 30% (w/v) trichloroacetic acid (200 μl). The reaction system was heated under 65° C. for 15 minutes to convert the formyl kynurenine into kynurenine, and then rotated under 12000 rpm for 10 minutes. The supernatant was taken to mix with isometric p-dimethyl amidogen benzaldehyde in acetic acid (2% (w/v)) solution. The yellow color caused by the reaction of the mixture and kynurenine, can be observed at 490 nm by using Microplate Reader. The results were calculated with IC50 calculation software (see Table 1).

[3] = 150 mM substrate L-tryptophan, pH 6.5, 37° C. 30 minutes, read at 490 nm, read-out: IC50(in vitro)

SMILES | Reversible Inhibitor or Not [1] | IC50 [2, 3] [µM] | IC50 [2] [µM]
O=C1c2cc(F)ccc2-n2c1nc1ccc(N3CCCCC3)cc1c2=O [Compound 9] | Reversible | 1.8 | –
CN1CCN(c2ccc3nc4n(c(=O)c3c2)-c2ccccc2C4=O)CC1 [Compound 11] | Reversible | 8.01 | –
CN1CCN(c2ccc3nc4n(c(=O)c3c2)-c2ccc(F)cc2C4=O)CC1 [Compound 6] | Reversible | 2.2 | –
CN(C)c1ccc2nc3n(c(=O)c2c1)-c1ccc(F)cc1C3=O [Compound 7] | Reversible | 10.3 | –
O=C1c2c(N3CCNCC3)cccc2-n2c1nc1ccccc1c2=O [Comparison 1, 7-piperazine tryptanthrin, reference compound] | Reversible | – | 54.3
O=C1c2cc(F)ccc2-n2c1nc1ccc(N3CCNCC3)cc1c2=O [Compound 5] | Reversible | 1.19 | –
